{"source": "patent US6605619B1", "about": "“Nitroxides as protectors against oxidatives stress” (The United States of America as represented by the …, priority 1992, dated 2003)", "key": {"[1]": {"test": "EPR signal of nitroxides exposed to O2 flux formed by HX/XO (spin-loss)", "format": "biochemical", "conditions": "% from total R′RNO + R′RNOH after exposure to 5 mM HX + 0.03 U/ml XO in air-saturated PBS pH 7.2", "protocol": "For EPR experiments, samples (0.05-0.1 ml) either of solutions of chemicals or cell suspensions were drawn by a syringe into a gas-permeable teflon capillary of 0.8 mm inner diameter, 0.05 mm wall thickness (Zeus Industrial Products, Inc. Raritan, N.J.). Each capillary was folded twice, inserted into a narrow quartz tube which was open at both ends (2.5 mm ID), and then placed horizontally into the EPR cavity. During the experiments, gases of desired compositions were blown around the sample without having to disturb the alignment of the tube within the EPR cavity. EPR spectra were recorded in a Varian E4 (or E9) X-band spectrometer, with field set at 3357 G, modulation frequency of 100 KHz, modulation amplitude of 1 G and non-saturating microwave power. The EPR spectrometer was interfaced to an IBM-PC through an analog-to-digital converter and a data translation hardware (DT2801) and the spectra were digitized using commercial acquisition software, enabling subtraction of background signals. To study the kinetics of the spin-loss, the spectra were deliberately overmodulated, and the magnetic field was kept constant while the intensity of the EPR signal was followed."}, "[2]": {"tested_on": "Chinese hamster V79 cells", "test": "Protection of cells exposed to HX/XO, clonogenic survival", "format": "cell-based", "conditions": "0.05 U/ml XO + 0.5 mM HX, 37° C.; 5 mM nitroxide; 100 U/ml catalase; SOD; 500 μM DF preincubated 2 h", "protocol": "Chinese hamster V79 cells were grown in F12 medium supplemented with 10% fetal calf serum, penicillin, and streptomycin. Survival was assessed in all studies by the clonogenic assay. The plating efficiency range between 80-90%. Stock cultures of exponentially growing cells were trypsinized, rinsed, and plated (5×10^5 cells/dish) into a number of 100 mm petri dishes and incubated 16 h at 37° C. prior to experimental protocols. Cells were exposed for 1 h at 37° C. to either 0.5 mM hypoxanthine (HX)+0.05 U/ml of xanthine oxidase (XO) for varying lengths of time, or to H2O2 at different concentrations. To assess possible modulation in cytotoxicity, catalase, 100 U/ml; SOD, 100 μg/ml; DF, 500 μM; and 5 mM of each of the nitroxides from Table 1 were added to parallel cultures. CHD was prepared in a stock solution in ethanol and diluted into medium such that the final concentration was 5 mM. […] TEMPOL is water soluble and was prepared directly in tissue culture medium. […] DF was added either 2 h prior to or during treatment while the other agents were present only during HX/XO or H2O2 treatment. Following treatment, cells were rinsed, trypsinized, counted, and plated for macroscopic colony formation. For each dose determination cells were plated in triplicate and the experiments were repeated a minimum of two times. Plates were incubated 7 days, after which colonies were fixed with methanol/acetic acid, stained with crystal violet, and counted. Colonies containing >50 cells were scored. Error bars represent S.D. of the mean and are shown when larger than the symbol."}}}
{"smiles": "CC1(C)CN([O])C2(CCCCC2)O1", "note": "[CHD, 2-spirocyclohexane-5,5-dimethyl-3-oxazolidinoxyl]", "values": [{"measurement": "Steady state EPR signal (%)", "setting": "[1]", "value": 30, "unit": "%"}, {"measurement": "cell survival / protection from HX/XO", "setting": "[2]", "value": "fully protected"}]}
